Literature values in patent US20210008081A1, “ORAL LIQUID FORMULATIONS OF ABIRATERONE” (LEIUTIS PHARMACEUTICALS PVT, LTD, priority 2018, published 2021).

CC(=O)O[C@H]1CC[C@@]2(C)C(=CC[C@@H]3[C@@H]2CC[C@]2(C)C(c4cccnc4)=CC[C@@H]32)C1 [Abiraterone acetate]
Solubility in organic solvents: sparingly soluble to freely soluble
Solubility in water: practically insoluble
Biopharmaceutical classification system class (low solubility low permeability): class IV
Solubility in aqueous media (over a wide range of pH): practically insoluble
